# ChEMBL document CHEMBL1156031, “Tetrahydrocarbazole-based serotonin reuptake inhibitor/dopamine D2 partial agonists for the potential treatment of schizophrenia” (Bioorg Med Chem Lett, 2009)
# Active and inactive are the calls of the source. No cut-off for these calls is given here.
# What was measured:
# [1] = target: Sodium-dependent serotonin transporter (Homo sapiens, UniProt P31645); experiment: biochemical; format: cell-based, HEK293
# [2] = target: T1, D(2) dopamine receptor (Homo sapiens, UniProt P14416); experiment: Displacement of [3H]spiperone from D2 receptor
# [3] = target: T2, 5-hydroxytryptamine receptor 2B (Homo sapiens, UniProt P41595); experiment: Binding affinity to 5-HT2B receptor
# [4] = target: T3, Adrenergic receptor alpha-1 (Rattus norvegicus, UniProt P15823+P23944+P43140); experiment: Binding affinity to alpha1 adrenergic receptor in rat brain membrane by radioligand binding assay; format: cell membranes
# T3 sequence (P15823 whole entry): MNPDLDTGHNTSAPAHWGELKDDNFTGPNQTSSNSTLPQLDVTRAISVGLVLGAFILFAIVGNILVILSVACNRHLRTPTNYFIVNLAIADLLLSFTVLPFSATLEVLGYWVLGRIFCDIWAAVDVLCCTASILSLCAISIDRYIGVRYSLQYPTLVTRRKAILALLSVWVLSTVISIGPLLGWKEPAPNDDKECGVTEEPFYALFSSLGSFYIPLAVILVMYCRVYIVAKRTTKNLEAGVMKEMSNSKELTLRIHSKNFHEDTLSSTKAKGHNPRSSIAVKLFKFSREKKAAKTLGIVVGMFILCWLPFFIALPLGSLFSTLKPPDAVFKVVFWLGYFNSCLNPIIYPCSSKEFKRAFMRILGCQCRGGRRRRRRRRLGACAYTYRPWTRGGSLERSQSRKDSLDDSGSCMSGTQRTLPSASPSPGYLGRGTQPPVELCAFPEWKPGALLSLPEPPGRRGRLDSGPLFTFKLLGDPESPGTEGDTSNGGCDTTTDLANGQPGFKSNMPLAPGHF
# T3 sequence (P23944 whole entry): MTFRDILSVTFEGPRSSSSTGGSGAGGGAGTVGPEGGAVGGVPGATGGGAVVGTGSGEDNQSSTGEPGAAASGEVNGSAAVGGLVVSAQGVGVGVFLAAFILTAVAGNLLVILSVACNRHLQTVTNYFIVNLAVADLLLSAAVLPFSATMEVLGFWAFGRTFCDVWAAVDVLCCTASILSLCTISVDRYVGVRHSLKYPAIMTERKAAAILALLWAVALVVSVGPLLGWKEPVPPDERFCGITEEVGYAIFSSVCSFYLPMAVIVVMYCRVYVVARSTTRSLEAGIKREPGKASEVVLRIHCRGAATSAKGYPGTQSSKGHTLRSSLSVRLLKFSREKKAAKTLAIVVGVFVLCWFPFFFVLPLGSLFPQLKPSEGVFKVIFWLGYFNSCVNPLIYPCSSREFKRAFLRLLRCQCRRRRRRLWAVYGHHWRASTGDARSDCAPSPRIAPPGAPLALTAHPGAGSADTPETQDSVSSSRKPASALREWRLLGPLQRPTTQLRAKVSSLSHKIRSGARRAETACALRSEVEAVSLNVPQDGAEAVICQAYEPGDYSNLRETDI
# T3 sequence (P43140 whole entry): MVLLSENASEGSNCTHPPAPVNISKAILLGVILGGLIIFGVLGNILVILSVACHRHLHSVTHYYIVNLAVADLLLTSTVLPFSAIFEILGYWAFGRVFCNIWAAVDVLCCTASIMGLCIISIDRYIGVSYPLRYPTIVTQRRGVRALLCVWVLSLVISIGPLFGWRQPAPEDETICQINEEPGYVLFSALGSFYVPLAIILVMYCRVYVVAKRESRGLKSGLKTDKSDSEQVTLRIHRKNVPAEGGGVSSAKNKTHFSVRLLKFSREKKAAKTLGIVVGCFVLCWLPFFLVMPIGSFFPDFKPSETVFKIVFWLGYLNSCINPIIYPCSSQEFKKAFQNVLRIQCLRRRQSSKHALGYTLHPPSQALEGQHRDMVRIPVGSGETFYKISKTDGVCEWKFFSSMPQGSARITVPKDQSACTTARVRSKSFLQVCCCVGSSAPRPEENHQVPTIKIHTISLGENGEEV
# [5] = target: 5-hydroxytryptamine receptor 2A (Homo sapiens, UniProt P28223); experiment: Agonist activity at 5-HT2A receptor; format: functional
# [6] = target: T1, D(2) dopamine receptor; experiment: Ratio of drug to quinpirole for agonist activity at D2 receptor assessed as change in intracellular cAMP level by cell based assay; format: functional
# [7] = target: T2, 5-hydroxytryptamine receptor 2B; experiment: Agonist activity at human recombinant 5-HT2B receptor expressed in CHO-K1 cells assessed as increase in intracellular calcium level by FLIPR assay; format: functional, cell-based
# [8] = Selectivity of Ki for human serotonin transporter to Ki for rat alpha1 adrenergic receptor
# [9] = test system: Rattus norvegicus; experiment: Behavioral effect in CAR rat model assessed as increase in escape response at 10 mg/kg, ip; format: functional, organism-based; design: dose 10 mg/kg
# [10] = test system: Rattus norvegicus; experiment: Behavioral effect in CAR rat model assessed as increase in escape response at 10 mg/kg, po; format: functional, organism-based; design: dose 10 mg/kg
# [11] = test system: Rattus norvegicus; experiment: Behavioral effect in CAR rat model assessed as reduction of avoidance response at 10 mg/kg, ip; format: functional, organism-based; design: dose 10 mg/kg
# [12] = test system: Mus musculus; experiment: Inhibition of catalepsy in mouse at 10 mg/kg, ip after 90 mins; format: functional
# [13] = test system: Rattus norvegicus; experiment: Behavioral effect in CAR rat model assessed as reduction of avoidance response at 10 mg/kg, po; format: functional, organism-based; design: dose 10 mg/kg
# [14] = test system: Mus musculus; experiment: Antipsychotic activity in ip dosed AIC mouse model assessed as stereotype effects; format: functional
# [15] = test system: Mus musculus; experiment: Antipsychotic activity in ip dosed AIC mouse model assessed as climbing response; format: functional
# T1 sequence (P14416 whole entry): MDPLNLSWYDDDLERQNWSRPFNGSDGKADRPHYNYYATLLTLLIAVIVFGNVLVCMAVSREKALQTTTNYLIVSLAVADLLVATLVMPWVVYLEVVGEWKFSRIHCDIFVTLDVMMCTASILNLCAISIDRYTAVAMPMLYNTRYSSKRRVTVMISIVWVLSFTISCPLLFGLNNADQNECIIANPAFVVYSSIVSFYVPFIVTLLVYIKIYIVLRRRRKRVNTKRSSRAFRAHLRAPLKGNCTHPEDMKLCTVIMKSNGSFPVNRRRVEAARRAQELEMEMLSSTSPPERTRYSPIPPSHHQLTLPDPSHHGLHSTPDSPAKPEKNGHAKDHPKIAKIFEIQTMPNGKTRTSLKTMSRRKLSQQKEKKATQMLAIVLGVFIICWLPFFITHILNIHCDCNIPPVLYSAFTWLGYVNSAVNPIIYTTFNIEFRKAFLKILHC
# Sequence of Sodium-dependent serotonin transporter (P31645 whole entry): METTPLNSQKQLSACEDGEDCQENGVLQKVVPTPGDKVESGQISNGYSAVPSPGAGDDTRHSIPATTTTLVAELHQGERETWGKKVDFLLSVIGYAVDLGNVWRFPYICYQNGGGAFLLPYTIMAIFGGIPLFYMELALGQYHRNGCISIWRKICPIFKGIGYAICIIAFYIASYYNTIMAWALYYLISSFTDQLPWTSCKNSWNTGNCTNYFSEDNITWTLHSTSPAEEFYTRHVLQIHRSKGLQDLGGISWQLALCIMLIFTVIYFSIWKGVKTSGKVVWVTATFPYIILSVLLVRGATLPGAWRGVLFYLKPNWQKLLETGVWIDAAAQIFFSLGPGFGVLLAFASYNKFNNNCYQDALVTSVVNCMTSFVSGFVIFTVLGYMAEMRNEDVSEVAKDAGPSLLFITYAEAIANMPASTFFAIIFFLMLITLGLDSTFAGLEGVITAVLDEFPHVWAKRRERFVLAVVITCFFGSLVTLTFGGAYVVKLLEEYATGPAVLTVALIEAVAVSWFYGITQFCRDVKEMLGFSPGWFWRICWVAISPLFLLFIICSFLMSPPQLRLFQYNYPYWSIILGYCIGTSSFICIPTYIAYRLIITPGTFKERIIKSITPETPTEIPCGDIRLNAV
# Sequence of 5-hydroxytryptamine receptor 2A (P28223 whole entry): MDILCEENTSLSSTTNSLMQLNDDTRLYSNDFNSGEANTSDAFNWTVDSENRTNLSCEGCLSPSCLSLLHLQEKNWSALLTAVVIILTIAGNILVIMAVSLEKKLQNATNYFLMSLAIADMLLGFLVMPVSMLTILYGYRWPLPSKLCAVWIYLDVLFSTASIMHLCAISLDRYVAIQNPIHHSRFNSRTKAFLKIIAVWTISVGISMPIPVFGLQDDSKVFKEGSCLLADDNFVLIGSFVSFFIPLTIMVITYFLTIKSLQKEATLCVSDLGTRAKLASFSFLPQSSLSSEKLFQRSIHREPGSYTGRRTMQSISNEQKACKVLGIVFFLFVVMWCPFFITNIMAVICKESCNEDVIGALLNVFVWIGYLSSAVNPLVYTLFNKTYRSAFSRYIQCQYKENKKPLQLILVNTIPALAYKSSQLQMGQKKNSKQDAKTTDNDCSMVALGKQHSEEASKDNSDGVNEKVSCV
# T2 sequence (P41595 whole entry): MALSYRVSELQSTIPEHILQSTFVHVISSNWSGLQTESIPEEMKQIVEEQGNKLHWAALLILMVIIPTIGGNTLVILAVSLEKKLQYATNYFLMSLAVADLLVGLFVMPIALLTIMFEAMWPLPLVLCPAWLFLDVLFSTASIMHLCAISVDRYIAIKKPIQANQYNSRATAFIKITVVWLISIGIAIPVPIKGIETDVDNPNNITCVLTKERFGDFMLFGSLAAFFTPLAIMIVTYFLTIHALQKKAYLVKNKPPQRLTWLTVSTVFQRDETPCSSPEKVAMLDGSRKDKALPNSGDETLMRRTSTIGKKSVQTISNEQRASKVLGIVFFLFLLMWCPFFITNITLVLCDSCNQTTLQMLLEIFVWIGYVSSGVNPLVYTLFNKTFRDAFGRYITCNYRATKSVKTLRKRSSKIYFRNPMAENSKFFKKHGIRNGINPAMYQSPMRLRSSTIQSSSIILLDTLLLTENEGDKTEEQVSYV
compound,measurement,setting,value
O=c1[nH]c2cccc(N3CCN(CCCC4CCc5c([nH]c6ccc(F)cc56)C4)CC3)c2o1 (stereo not given),Ki,[1],62 nM
same,Ki,[2],50 nM
"O=c1[nH]c2cccc(N3CCN(CC4CCc5[nH]c6ccc(F)cc6c5C4)CC3)c2o1 (single isomer, unassigned; 30)",Ki,[1],32 nM
same,Ki,[2],60 nM
O=C1Cc2c(ccc3c2OC[C@H](CNCC2CCc4[nH]c5ccc(F)cc5c4C2)O3)N1 (stereo in doubt; 25) [listing 1 of 2 here],Ki,[1],1 nM
same,Ki,[2],3 nM
same,Ki,[3],6 nM
same,Ki,[4],0.72 nM
same,Ki,[5],2 nM
O=c1[nH]c2cccc(OCC3CCN(CCC4CCc5[nH]c6ccc(F)cc6c5C4)CC3)c2o1 (stereo not given),Ki,[1],10 nM
same,Ki,[2],720 nM
O=C1Cc2c(ccc3c2OC[C@H](CNCCCC2CCc4c([nH]c5ccc(F)cc45)C2)O3)N1 (stereo in doubt; 22) [listing 1 of 2 here],Ratio,[6],0.3
same,Activity,[7],inactive
same,Ratio Ki,[8],10
O=C1Cc2c(ccc3c2OC[C@H](CNCCCC2CCc4c([nH]c5ccc(F)cc45)C2)O3)N1 (stereo in doubt; 23) [listing 1 of 2 here],Ki,[1],4 nM
same,Ki,[2],45 nM
same,Ki,[3],400 nM
same,Ki,[4],22 nM
O=c1[nH]c2cccc(N3C[C@H]4C[C@@H]3CN4CC3CCc4[nH]c5ccc(F)cc5c4C3)c2o1 (stereo not given in full) [listing 1 of 3 here],Ratio,[6],0.3
same,Activity,[7],inactive
same,Ratio Ki,[8],10
"O=C1Cc2c(ccc3c2OC[C@H](CNCC2CCc4[nH]c5ccc(F)cc5c4C2)O3)N1 (single isomer, unassigned) [listing 1 of 2 here]",Ki,[1],7 nM
same,Ki,[2],3 nM
same,Ki,[3],130 nM
same,Ki,[4],0.5 nM
same,Ki,[5],2 nM
"O=c1[nH]c2cccc(N3CCN(CC4CCc5[nH]c6ccc(F)cc6c5C4)CC3)c2o1 (single isomer, unassigned; 31) [listing 1 of 2 here]",Ratio,[6],0.6
same,Activity,[7],inactive
same,Activity,[9],Active
same,Activity,[10],Active
same,Activity,[11],Active
same,Activity,[12],inactive
same,Activity,[13],Active
O=C1Cc2c(cccc2N2CCN(CC3CCc4[nH]c5ccc(F)cc5c4C3)CC2)N1 (stereo not given),Ki,[1],1140 nM
same,Ki,[2],15 nM
O=c1[nH]c2cccc(N3CCN(CC4CCc5c([nH]c6ccc(F)cc56)C4)CC3)c2o1 (stereo not given),Ki,[1],62 nM
same,Ki,[2],220 nM
"O=c1[nH]c2cccc(N3CCN(CC4CCc5[nH]c6ccc(F)cc6c5C4)CC3)c2o1 (single isomer, unassigned; 31) [listing 2 of 2 here]",ED50,[14],> 1 mg/kg
same,Ki,[1],22 nM
same,Ki,[2],17 nM
same,Ki,[3],680 nM
same,Ki,[4],220 nM
same,ED50,[15],0.5 mg/kg
same,Ki,[5],130 nM
O=C1Cc2c(ccc3c2OC[C@H](CNCCC2CCc4[nH]c5ccc(F)cc5c4C2)O3)N1 (stereo not given in full) [listing 1 of 2 here],Ki,[1],24 nM
same,Ki,[2],24 nM
O=C1Cc2c(ccc3c2OC[C@H](CNCCC2CCc4c([nH]c5ccc(F)cc45)C2)O3)N1 (stereo not given in full),Ki,[1],5200 nM
same,Ki,[2],36 nM
O=c1[nH]c2cccc(OC3CCN(CCC4CCc5[nH]c6ccc(F)cc6c5C4)CC3)c2o1 (stereo not given),Ki,[1],1200 nM
same,Ki,[2],310 nM
O=C1Cc2c(cccc2N2CCN(CCC3CCc4[nH]c5ccc(F)cc5c4C3)CC2)N1 (stereo not given),Ki,[1],4700 nM
same,Ki,[2],15 nM
O=C1Cc2c(ccc3c2OC[C@H](CNCCCC2CCc4c([nH]c5ccc(F)cc45)C2)O3)N1 (stereo in doubt; 23) [listing 2 of 2 here],Ratio,[6],0.3
same,Activity,[7],inactive
same,Ratio Ki,[8],10
O=c1[nH]c2cccc(CN3CCN(CC4CCc5[nH]c6ccc(F)cc6c5C4)CC3)c2o1 (stereo not given),Ki,[1],41 nM
same,Ki,[2],120 nM
O=c1[nH]c2cccc(OC3CCN(CC4CCc5[nH]c6ccc(F)cc6c5C4)CC3)c2o1 (stereo not given),Ki,[1],3 nM
same,Ki,[2],140 nM
O=c1[nH]c2cccc(OCC3CCN(CC4CCc5[nH]c6ccc(F)cc6c5C4)CC3)c2o1 (stereo not given),Ratio,[6],< 0.1
same,Activity,[7],inactive
same,Ki,[1],0.4 nM
same,Ki,[2],28 nM
same,Ki,[3],110 nM
same,Ki,[4],130 nM
"O=C1Cc2c(ccc3c2OC[C@H](CNCC2CCc4[nH]c5ccc(F)cc5c4C2)O3)N1 (single isomer, unassigned) [listing 2 of 2 here]",Ratio,[6],0.3
same,Activity,[7],inactive
same,Ratio Ki,[8],10
O=C1Cc2c(ccc3c2OC[C@H](CNCCCC2CCc4c([nH]c5ccc(F)cc45)C2)O3)N1 (stereo in doubt; 22) [listing 2 of 2 here],Ki,[1],15 nM
same,Ki,[2],50 nM
same,Ki,[3],610 nM
same,Ki,[4],54 nM
same,Ki,[5],6 nM
O=c1[nH]c2cccc(N3C[C@H]4C[C@@H]3CN4CC3CCc4[nH]c5ccc(F)cc5c4C3)c2o1 (stereo not given in full) [listing 2 of 3 here],Ki,[1],460 nM
same,Ki,[2],12 nM
O=C1Cc2c(ccc3c2OC[C@H](CNCC2CCc4c([nH]c5ccc(F)cc45)C2)O3)N1 (stereo not given in full),Ki,[1],25 nM
same,Ki,[2],100 nM
O=C1Cc2c(ccc3c2OC[C@H](CNCCC2CCc4[nH]c5ccc(F)cc5c4C2)O3)N1 (stereo not given in full) [listing 2 of 2 here],Ki,[1],21 nM
same,Ki,[2],24 nM
O=c1[nH]c2cccc(N3C[C@H]4C[C@@H]3CN4CC3CCc4[nH]c5ccc(F)cc5c4C3)c2o1 (stereo not given in full) [listing 3 of 3 here],ED50,[14],> 5 mg/kg
same,Ki,[1],8 nM
same,Ki,[2],14 nM
same,Ki,[3],165 nM
same,Ki,[4],65 nM
same,ED50,[15],2.3 mg/kg
same,inhibition in vivo at 10 mg/kg,"[12]; 1.5 h, route intraperitoneal",48%
same,Ki,[5],1800 nM
O=C1Cc2c(ccc3c2OC[C@H](CNCC2CCc4[nH]c5ccc(F)cc5c4C2)O3)N1 (stereo in doubt; 25) [listing 2 of 2 here],Ratio,[6],0.4
same,Activity,[7],inactive
same,Ratio Ki,[8],10
